This passage reports IC50 results from US20260014119A1, “EMOPAMIL-BINDING PROTEIN INHIBITORS AND USES THEREOF” (BIOGEN MA INC., priority 2022, published 2026).

T1 sequence (Q15125 whole entry): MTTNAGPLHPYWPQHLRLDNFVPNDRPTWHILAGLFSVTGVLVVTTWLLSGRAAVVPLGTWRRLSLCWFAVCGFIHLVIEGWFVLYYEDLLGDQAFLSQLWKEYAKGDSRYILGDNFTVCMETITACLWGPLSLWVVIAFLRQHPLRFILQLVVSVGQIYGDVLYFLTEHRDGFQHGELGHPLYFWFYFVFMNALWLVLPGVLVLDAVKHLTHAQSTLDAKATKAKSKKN

This test addresses T1, EBP (Homo sapiens, UniProt Q15125).
T1 construct: HEK293T cells were utilized as the source of EBP enzyme; endogenous in cells; host or cells: HEK293T
The experiment in a line: EBP Functional Assay (EBP immunoaffinity LC-MS assay). The note with it: EBP enzyme from HEK293T cells; 30 min with inhibitor, then zymosterol-d5 at 37° C. for 4 h; percent conversion by LC-APCI MRM MS. The test is classed as biochemical. The procedure: The EBP immunoaffinity (IA) LC-MS assay measures the potency of small molecule inhibitors of EBP by quantifying their concentration-dependent changes in the enzyme's substrate and product using liquid chromatography atmospheric pressure chemical ionization multiple reaction monitoring mass spectrometry (LC-APCI MRM MS). HEK293T cells were utilized as the source of EBP enzyme. The enzyme was incubated with the small molecule inhibitors at variable concentrations for 30 min. Deuterated form of EBP substrate, zymosterol-d5 (Avanti Polar Lipids, Cat #700068P-1 mg), was then added and the plate was incubated at 37° C. for 4 h. Finally, the sterol isomers were extracted and injected to LC-APCI MRM MS. MRM transition used for the quantification for both zymosterol and […] (substrate and product of EBP enzymatic reaction, respectively) is 372.3-203.2, CE 30 and DP 80 in positive ion mode. Percent conversion of the zymosterol-d5 to dehydrolathosterol-d5 was used to derive IC50 curves. Tasin-1 (1′-[(4-Methoxyphenyl)sulfonyl]-4-methyl-1,4′-bipiperidine, CAS 792927-06-1) was used as the reference small molecule inhibitor.
Percent conversion versus the compound concentration data were fit to the following 4-parameter logistic model to generate IC50 curves: […]
For `Cc1cc(S(=O)(=O)N2C[C@H]3CN(C4CCOCC4)C[C@H]3C2)n(C)n1` [Example 31, (3aR,6aS)-2-((1,3-dimethyl-1H-pyrazol-5-yl)sulfonyl)-5-(tetrahydro-2H-pyran-4-yl)octahydropyrrolo[3,4-c]pyrrole], the 50% inhibitory concentration (IC50) – broadly, the concentration at which inhibition is half-maximal – was in the range of 100 to 500 nM. For `Cc1nc(C(F)(F)F)ncc1S(=O)(=O)N1C[C@H]2CN(C3CC4(COC4)C3)C[C@@H]2C1` (racemic) [Example 58, Rac-(3aR,6aR)-2-((4-methyl-2-(trifluoromethyl)pyrimidin-5-yl)sulfonyl)-5-(2-oxaspiro[3.3]heptan-6-yl)octahydropyrrolo[3,4-c]pyrrole] the value was 100 to 500 nM; for `Cc1nc(C(F)(F)F)ccc1S(=O)(=O)N1C[C@H]2CN(CC3COC3)C[C@@H]2C1` (racemic) [Example 52, Rac-(3aR,6aR)-2-((2-methyl-6-(trifluoromethyl)pyridin-3-yl)sulfonyl)-5-(oxetan-3-ylmethyl)octahydropyrrolo[3,4-c]pyrrole], over 500 nM. For `Cc1nc(C(F)(F)F)nc(C)c1S(=O)(=O)N1C[C@H]2CN(C3CCOCC3)C[C@@H]2C1` [Example 60, (3aR,6aR)-2-((4,6-dimethyl-2-(trifluoromethyl)pyrimidin-5-yl)sulfonyl)-5-(tetrahydro-2H-pyran-4-yl)octahydropyrrolo[3,4-c]pyrrole] the value was under 100 nM; for `CC1CCN([C@@H]2C[C@@H]3CN(S(=O)(=O)c4ccc(OC(F)F)cc4)C[C@@H]3C2)CC1` [Example 6, (3aR,5r,6aS)-2-((4-(Difluoromethoxy)phenyl)sulfonyl)-5-(4-methylpiperidin-1-yl)octahydrocyclopenta[c]pyrrole], 100 to 500 nM. The value for `O=S(=O)(c1ccc(OC(F)F)cc1)N1C[C@H]2C[C@H](N3CCOCC3)C[C@H]2C1` [Example 13, 4-((3aR,5r,6aS)-2-((4-(Difluoromethoxy)phenyl)sulfonyl)octahydrocyclopenta[c]pyrrol-5-yl)morpholine] was over 500 nM; that for `Cc1nc(C(F)(F)F)ncc1S(=O)(=O)N1C[C@H]2CN(CC3CCOCC3)C[C@@H]2C1` (racemic) [Example 59, Rac-(3aR,6aR)-2-((4-methyl-2-(trifluoromethyl)pyrimidin-5-yl)sulfonyl)-5-((tetrahydro-2H-pyran-4-yl)methyl)octahydropyrrolo[3,4-c]pyrrole] was 100 to 500 nM; that for `CN(CC1CCOCC1)[C@H]1C[C@@H]2CN(S(=O)(=O)c3ccc(OC(F)F)cc3)C[C@@H]2C1` [Example 17, (3aR,5s,6aS)-2-((4-(Difluoromethoxy)phenyl)sulfonyl)-N-methyl-N-((tetrahydro-2H-pyran-4-yl)methyl)octahydrocyclopenta[c]pyrrol-5-amine] was 100 to 500 nM. Regarding `Cc1ccc(S(=O)(=O)N2C[C@H]3C[C@H](N4CCC(C)CC4)C[C@H]3C2)c(C)c1` [Example 3, (3aR,5s,6aS)-2-((2,4-Dimethylphenyl)sulfonyl)-5-(4-methylpiperidin-1-yl)octahydrocyclopenta[c]pyrrole], the concentration for half-maximal inhibition (IC50) was under 100 nM.

On to `Cc1nc(C(F)(F)F)ccc1S(=O)(=O)N1C[C@H]2CN(C3CCOCC3)C[C@@H]2C1` (single isomer, unassigned) [Example 48], for which the IC50 is 100 to 500 nM. Regarding `Cn1nc(C(F)(F)F)cc1S(=O)(=O)N1C[C@H]2CN(C3CCOCC3)C[C@@H]2C1` [Example 46, (3aR,6aR)-2-((1-Methyl-3-(trifluoromethyl)-1H-pyrazol-5-yl)sulfonyl)-5-(tetrahydro-2H-pyran-4-yl)octahydropyrrolo[3,4-c]pyrrole], the IC50 fell in the range of 100 to 500 nM.

The molecule `Cc1nc(C(F)(F)F)ccc1S(=O)(=O)N1C[C@@H]2CN(C3CCOCC3)C[C@H]2C1` (single isomer, unassigned) [Example 47] gave an IC50 of 100 to 500 nM. For `CC1CCN([C@H]2C[C@@H]3CN(S(=O)(=O)c4ccc(OC(F)F)cc4)C[C@@H]3C2)CC1` [Example 4, (3aR,5s,6aS)-2-((4-(Difluoromethoxy)phenyl)sulfonyl)-5-(4-methylpiperidin-1-yl)octahydrocyclopenta[c]pyrrole] the value was 100 to 500 nM; for `Cc1nc(C(F)(F)F)ccc1S(=O)(=O)N1C[C@H]2CN(CC34COC(C)(C3)C4)C[C@@H]2C1` (racemic) [Example 54], 100 to 500 nM; for `O=S(=O)(c1ccc(OC(F)F)cc1)N1C[C@H]2C[C@H](NCC3CCOCC3)C[C@H]2C1` [Example 8, (3aR,5s,6aS)-2-((4-(Difluoromethoxy)phenyl)sulfonyl)-N-((tetrahydro-2H-pyran-4-yl)methyl)octahydrocyclopenta[c]pyrrol-5-amine], 100 to 500 nM.

In turn, `Cc1nc(C(F)(F)F)ccc1S(=O)(=O)N1C[C@H]2CN(CC34COC(C)(C3)C4)C[C@@H]2C1` (single isomer, unassigned) [Example 56] showed an IC50 of 100 to 500 nM. For `Cc1nc(C(F)(F)F)ccc1S(=O)(=O)N1C[C@H]2CN(C3CC4(COC4)C3)C[C@@H]2C1` (racemic) [Example 50, Rac-(3aR,6aR)-2-((2-methyl-6-(trifluoromethyl)pyridin-3-yl)sulfonyl)-5-(2-oxaspiro[3.3]heptan-6-yl)octahydropyrrolo[3,4-c]pyrrole] the value was under 100 nM. The value for `Cc1ccc(S(=O)(=O)N2C[C@H]3C[C@@H](NCC4CCOCC4)C[C@H]3C2)c(C)c1` [Example 1, (3aR,5r,6aS)-2-((2,4-Dimethylphenyl)sulfonyl)-N-((tetrahydro-2H-pyran-4-yl)methyl)octahydrocyclopenta[c]pyrrol-5-amine] was under 100 nM; that for `Cn1nc(C2CC2)cc1S(=O)(=O)N1C[C@H]2C[C@H](NCC3(C)COC3)C[C@H]2C1` [Example 21, (3aR,5s,6aS)-2-((3-Cyclopropyl-1-methyl-1H-pyrazol-5-yl)sulfonyl)-N-((3-methyloxetan-3-yl)methyl)octahydrocyclopenta[c]pyrrol-5-amine] was under 100 nM; that for `Cc1nc(C(F)(F)F)ccc1S(=O)(=O)N1C[C@H]2C[C@H](NCC3CCOCC3)C[C@H]2C1` [Example 27, (3aR,5s,6aS)-2-((2-Methyl-6-(trifluoromethyl)pyridin-3-yl)sulfonyl)-N-((tetrahydro-2H-pyran-4-yl)methyl)octahydrocyclopenta[c]pyrrol-5-amine] was under 100 nM.

Take `O=S(=O)(c1ccc(OC(F)F)cc1)N1C[C@H]2C[C@H](NC3COC3)C[C@H]2C1` [Example 14, (3aR,5s,6aS)-2-((4-(Difluoromethoxy)phenyl)sulfonyl)-N-(oxetan-3-yl)octahydrocyclopenta[c]pyrrol-5-amine]: the IC50 is over 500 nM. The value for `Cc1nc(C(F)(F)F)ccc1S(=O)(=O)N1C[C@H]2C[C@H](NC3CCOCC3)C[C@H]2C1` [Example 28, (3aR,5s,6aS)-2-((2-Methyl-6-(trifluoromethyl)pyridin-3-yl)sulfonyl)-N-(tetrahydro-2H-pyran-4-yl)octahydrocyclopenta[c]pyrrol-5-amine] was under 100 nM.
